Data on two compounds can be found in US10238670B2, “9-aminomethyl minocycline compounds and methods of use thereof in urinary tract infection (UTI) treatment” (Paratek Pharmaceuticals, Inc., priority 2016, dated 2019).

The subject of one series is E. coli FQR. Briefly: In vitro MIC, 2010 surveillance isolates. It is filed as cell-based, Escherichia coli. The settings on record: N=1264.
Series [1] has as its system S. saprophyticus. Description: In vitro MIC90 against common uncomplicated UTI pathogens. It is filed as cell-based. The settings on record: Staphylococcus saprophyticus. As to the method: The minimum inhibitory concentrations for at least 90% of the isolates (MIC90) tested for Compound 1 against these common pathogens are 1 μg/mL for S. saprophyticus, 2 μg/mL for ESBL-negative E. coli, and 4 μg/mL for ESBL-producing E. coli.

Series [2] is described as follows: In vitro activity at pH 6.0 in media. It is filed as cell-based.
In series [3] the test system is S. saprophyticus. Briefly: In vitro activity in urine relative to standard media. It is filed as cell-based.
Series [4] can be described thus: 14C-labeled Compound 1 single oral 300 mg dose, plasma and urine. It is filed as in vivo, human. The settings on record: for AUC(0-inf): 300 mg. As to the method:
^14C-labeled Compound 1 was administered as a single oral 300 mg dose to healthy human subjects. […] The concentrations of Compound 1 in urine are shown in Table 2 and indicate that urine concentrations exceed the plasma concentrations throughout the dosing interval. The AUC0-24 in urine was 186.1 μg*hr/ml.
While the driver of efficacy for Compound 1 in UTI is not completely known, and while not wishing to be bound by any particular theory, Applicant believes that maximizing time of urine concentration above pathogen MIC (ideally, throughout the dosing interval) is desirable. This belief is partly based on a clinical study that evaluated the disposition of a single 300 mg oral dose of ^14C-Compound 1. In this study, plasma concentrations were consistent with previous oral dosing studies (area under the concentration-time curve from 0 to infinity [AUC0-inf] 9.4 μg·h/mL), and it was determined that approximately 40% of the absorbed dose was eliminated in the urine. Urine concentrations of Compound 1 were not measured directly but estimated concentrations (based on portion of excreted radioactivity) exceeded plasma concentrations and averaged between 7.6 and 11.2 μg/mL over the 24 hours following dosing. These urine concentrations would exceed the MIC90 for ESBL-producing E. coli (4 μg/mL) by approximately 2-fold. It is also known from Applicant's clinical studies that exposure to Compound 1 based on plasma concentrations is approximately 50% higher at steady-state than after a single dose.

In the next series the test system is protein. The following applies: cited from earlier work.

Converted amounts (≈) assume the structure as drawn. Like-named read-outs stand apart in the source and are kept apart here.

What is called MIC90 is the lowest concentration that inhibits either 90% of growth or 90% of the strains tested, depending on the study. Higher therefore signals lower susceptibility. In general, AUC(0-inf) refers to the area under the concentration-time curve extrapolated to infinity. Regarding `CN(C)c1cc(CNCC(C)(C)C)c(O)c2c1C[C@H]1C[C@H]3[C@H](N(C)C)C(O)=C(C(N)=O)C(=O)[C@@]3(O)C(O)=C1C2=O` [Compound 1, 9-[(2,2-dimethyl-propylamino)-methyl]-minocycline], the “Cumulative % Inhibition at MIC” value with E. coli FQR (MIC 1 μg/ml) is listed as 64.4%; in the series with E. coli FQR (MIC 2 μg/ml) it was 89.2%; in the series with E. coli FQR (MIC 4 μg/ml) it was 97.7%; in the series on E. coli FQR (MIC 8 μg/ml) it was 99.6%; with E. coli FQR (MIC 16 μg/ml), 99.9%; in the series with E. coli FQR (MIC ≤0.5 μg/ml, listed as head image P00008) it was 29.6%. The “Cumulative % Inhibition at MIC” value in the series with E. coli FQR (MIC ≥32 μg/ml) amounted to 100%. The same compound yielded an MIC90 against S. saprophyticus [1] of 1 µg/mL (≈ 1.8 µM). In addition, the “in vitro activity at pH 6.0 in media” value in series [2] is given as “somewhat decreased”. For the same compound, the “activity in urine relative to standard media” value with S. saprophyticus [3] was “stable”. In series [4] (human, in vivo, po), the “absorbed dose eliminated in the urine” value is on record as “approximately 40%”. The “estimated concentrations in urine, average over 24 hours” value in series [4] (human, in vivo, po) is 7.6 and 11.2. The “urine concentration relative to 4 μg/mL (MIC90 for ESBL-producing E. coli)” value in series [4] (human, in vivo, po) is reported as “approximately 2 fold”. Further, the AUC(0-inf) in series [4] (human, in vivo, po, plasma AUC0-inf) turned out to be 9400 ng·h/mL; in series [4] (human, in vivo, po, plasma AUCinf) it was 9420 ng·h/mL. For the same compound, the “plasma Cmax” value in series [4] (single oral 300 mg dose, healthy subjects) was 563 ng/mL.

Consider `CN(C)c1cc(NC(=O)CNC(C)(C)C)c(O)c2c1C[C@H]1C[C@H]3[C@H](N(C)C)C(O)=C(C(N)=O)C(=O)[C@@]3(O)C(O)=C1C2=O` [Tigecycline], for which the protein binding in the series with protein (0.1 μg/mL, ultracentrifugation) is recorded as 73%; in the series on protein (0.1 μg/mL, ultrafiltration) it was 71%; in the series with protein (1.0 μg/mL, ultracentrifugation), 79%; with protein (1.0 μg/mL, ultrafiltration) it was 87%. The figures for the “protein binding, Ultracentrifugation” value with protein (Concentration 100 ng/mL) and in the series on protein (Concentration 1,000 ng/mL) were 73% and 79%, respectively. Besides, the “protein binding, Ultrafiltration” value is listed as 71% in the series on protein (Concentration 100 ng/mL) and 87% in the series on protein (Concentration 1,000 ng/mL).
